IC50 data for 33 compounds are collected here from patent US9499553B2 (CHUGAI SEIYAKU KABUSHIKI KAISHA, priority 2013, dated 2016).

One experiment deals with T1, human NaPi-IIb (Homo sapiens, UniProt O95436).
T1 construct: expressed in transfected cells
T1 sequence (O95436 1-690): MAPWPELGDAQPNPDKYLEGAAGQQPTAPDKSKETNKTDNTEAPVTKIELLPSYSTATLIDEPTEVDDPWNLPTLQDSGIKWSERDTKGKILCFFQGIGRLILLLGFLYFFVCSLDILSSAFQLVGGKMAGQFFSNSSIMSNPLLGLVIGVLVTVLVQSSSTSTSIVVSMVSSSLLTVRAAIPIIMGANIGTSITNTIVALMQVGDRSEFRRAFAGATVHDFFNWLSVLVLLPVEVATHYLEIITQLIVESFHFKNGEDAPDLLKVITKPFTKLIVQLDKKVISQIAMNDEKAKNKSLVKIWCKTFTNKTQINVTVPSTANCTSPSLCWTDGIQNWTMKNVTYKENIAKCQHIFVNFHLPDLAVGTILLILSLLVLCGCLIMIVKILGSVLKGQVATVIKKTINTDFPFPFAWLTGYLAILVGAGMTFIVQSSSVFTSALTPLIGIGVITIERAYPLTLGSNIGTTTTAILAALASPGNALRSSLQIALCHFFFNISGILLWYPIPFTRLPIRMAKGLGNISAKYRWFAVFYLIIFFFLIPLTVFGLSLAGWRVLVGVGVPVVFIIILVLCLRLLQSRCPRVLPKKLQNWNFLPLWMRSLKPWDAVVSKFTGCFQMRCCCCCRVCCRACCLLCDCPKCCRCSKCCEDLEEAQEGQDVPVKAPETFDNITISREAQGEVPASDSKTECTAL
The experiment in a line: Inhibitory effect on 33PO4 uptake into human NaPi-IIb-expressing CHO cells. In kind it is cell-based. Particulars: read-out: IC50. A digest of the protocol: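 Stable human NaPi-IIb CHO line (G418-selected), plated and cultured overnight; ³³PO4 added in buffer A and uptake run at room temperature. Cells washed with ice-cold buffer A, then uptake counted by liquid scintillation.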
On to `CC(C)[C@@H]1C(O)=C(C(=O)Nc2ccc(Cl)cc2-c2cc(C(F)(F)F)ncn2)C(=O)N(Cc2cccc(F)c2F)N1C` [Example 250], for which the IC50 turned out to be 17.9 µM. Take `CN1[C@@H](C(C)(C)C)C(O)=C(C(=O)Nc2ccc(Br)c(C(F)(F)F)n2)C(=O)N1Cc1cccc(F)c1F` [Example 242]: the IC50 came to 7.8 µM.

On to `COc1cccc(-c2cc(C(F)(F)F)ccc2NC(=O)C2=C(O)[C@@]3(C)CCCN3N(Cc3ccc(CCCOCCOCCOCCO)c(F)c3F)C2=O)c1OC` [Example 142], for which the IC50 was determined as 17.6 µM. Turning to `CN(C)S(=O)(=O)c1ccc(-c2nc(C(F)(F)F)ccc2NC(=O)C2=C(O)[C@@]3(C)CCCN3N(Cc3cccc(F)c3F)C2=O)cc1` [Example 87], the IC50 is 8.3 µM. Consider `COc1cncc(-c2cc(C(F)(F)F)ccc2NC(=O)C2=C(O)[C@@]3(C)CCCN3N(Cc3cccc(F)c3F)C2=O)c1` [Example 81], for which the IC50 turned out to be 17.5 µM. With `CCOC(=O)CCCCCCN1C(=O)C(C(=O)Nc2ccc(C(F)(F)F)cc2-c2ccc(C(F)(F)F)nc2)=C(O)[C@@]2(C)CCCN12` [Example 235, Ethyl 7-[(4aR)-4-hydroxy-4a-methyl-2-oxo-3-[[4-(trifluoromethyl)-2-[6-(trifluoromethyl)pyridin-3-yl]phenyl]carbamoyl]-6,7-dihydro-5H-pyrrolo[1,2-b]pyridazin-1-yl]heptanoate], the half-inhibitory concentration (IC50) came out at 4.8 µM. For `CSc1ccc(-c2cc(C(F)(F)F)ccc2NC(=O)C2=C(O)[C@@]3(C)CCCN3N(Cc3ccc(OCCN4CCOCC4)c(F)c3F)C2=O)cn1` [Example 103], the IC50 was found to be 11 µM. Consider `CSc1ncc(-c2cc(C(F)(F)F)ccc2NC(=O)C2=C(O)[C@@]3(C)CCCN3N(Cc3ccc(OCCN4CCOCC4)c(F)c3F)C2=O)cn1` [Example 104], for which the IC50 was found to be 10.8 µM. For `C[C@]12CCCN1N(Cc1ccc(F)cc1F)C(=O)C(C(=O)Nc1ccc(C(F)(F)F)cc1-c1ccc(C(F)(F)F)nc1)=C2O` [Example 173], the half-inhibitory concentration (IC50) was 1.9 µM. As for `CN1N(Cc2ccc(OCCCCCCC(=O)O)c(F)c2F)C(=O)C(C(=O)Nc2ccc(C(F)(F)F)cc2-c2cc(C(F)(F)F)ncn2)=C(O)C12CCCC2` [Example 335], the IC50 was 8.7 µM. For `CN1N(Cc2cccc(F)c2F)C(=O)C(C(=O)Nc2ccc(Cl)cc2-c2ccc(C(F)(F)F)nc2)=C(O)C1(C)C` [Example 309], the IC50 stood at 6.5 µM. `CN1N(Cc2ccc(OCCN3CCOCC3)c(F)c2F)C(=O)C(C(=O)Nc2ccc(C(F)(F)F)cc2-c2cc(C(F)(F)F)ncn2)=C(O)C12CCCC2` [Example 318, 7-[[2,3-Difluoro-4-(2-morpholin-4-ylethoxy)phenyl]methyl]-10-hydroxy-6-methyl-8-oxo-N-[4-(trifluoromethyl)-2-[6-(trifluoromethyl)pyrimidin-4-yl]phenyl]-6,7-diazaspiro[4.5]dec-9-ene-9-carboxamide]: the IC50 stood at 8.6 µM.

With `C[C@]12CCCN1N(Cc1cccc(F)c1F)C(=O)C(C(=O)Nc1cc(F)c(Br)c(F)c1)=C2O` [Example 29], the IC50 is 2 µM. Regarding `CN1[C@@H](C(C)(C)C)C(O)=C(C(=O)Nc2ccc(C(F)(F)F)cc2-c2ccnc(C#N)c2)C(=O)N1Cc1ccc(OCCN2CCOCC2)c(F)c1F` [Example 271], the IC50 turned out to be 17.3 µM. As to `C[C@]12CCCN1N(Cc1c(F)cc(C#CCCCCCOC[C@H](O)[C@@H](O)CO)cc1F)C(=O)C(C(=O)Nc1ccc(C(F)(F)F)cc1-c1ccc(C(F)(F)F)nc1)=C2O` [Example 124, (4aR)-1-[[2,6-Difluoro-4-[7-[(2S,3S)-2,3,4-trihydroxybutoxy]hept-1-ynil]phenyl]methyl]-4-hydroxy-4a-methyl-2-oxo-N-[4-(trifluoromethyl)-2-[6-(trifluoromethyl)pyridin-3-yl]phenyl]-6,7-dihydro-5H-pyrrolo[1,2-b]pyridazine-3-carboxamide], the IC50 was determined as 2.5 µM. Regarding `C[C@]12CCCN1N(Cc1c(F)cc(C#CCCOC[C@H](O)CO)cc1F)C(=O)C(C(=O)Nc1ccc(C(F)(F)F)cc1-c1ccc(C(F)(F)F)nc1)=C2O` [Example 145], the IC50 worked out at 7.1 µM. Turning to `CSc1ccc(-c2cc(C(F)(F)F)ccc2NC(=O)C2=C(O)[C@@]3(C)CCCN3N(Cc3ccc(C#CCCCCC(=O)O)c(F)c3F)C2=O)cn1` [Example 117, 7-[4-[[(4aR)-4-Hydroxy-4a-methyl-3-[[2-(6-methylsulfanylpyridin-3-yl)-4-(trifluoromethyl)phenyl]carbamoyl]-2-oxo-6,7-dihydro-5H-pyrrolo[1,2-b]pyridazin-1-yl]methyl]-2,3-difluorophenyl]hept-6-ynoate], the IC50 stood at 9.5 µM.

Turning to `CSc1ccc(-c2cc(C(F)(F)F)ccc2NC(=O)C2=C(O)C3(CCCC3)N(C)N(Cc3ccc(OCCN4CCOCC4)c(F)c3F)C2=O)cn1` [Example 289], the IC50 is 16.3 µM. Take `CN1N(Cc2ccc(OCCN3CCOCC3)c(F)c2F)C(=O)C(C(=O)Nc2ccc(C(F)(F)F)cc2-c2cc(C(F)(F)F)ncn2)=C(O)C1(C)C` [Example 313, 2-[[2,3-Difluoro-4-(2-morpholin-4-ylethoxy)phenyl]methyl]-5-hydroxy-1,6,6-trimethyl-3-oxo-N-[4-(trifluoromethyl)-2-[6-(trifluoromethyl)pyrimidin-4-yl]phenyl]pyridazine-4-carboxamide]: the IC50 turned out to be 18.3 µM.

As for `COc1cccc(-c2cc(C(F)(F)F)ccc2NC(=O)C2=C(O)[C@@]3(C)CCCN3N(Cc3cccc(F)c3F)C2=O)n1` [Example 93], the IC50 turned out to be 17.4 µM. For the compound `C[C@]12CCCN1N(Cc1cccc(F)c1F)C(=O)C(C(=O)Nc1ccc(C(F)(F)F)cc1-c1cnc(Cl)cn1)=C2O` [Example 74], the IC50 turned out to be 4.1 µM. Regarding `CN1N(Cc2cccc(F)c2F)C(=O)C(C(=O)Nc2ccc(C(F)(F)F)cc2-c2cc(C(F)(F)F)ncn2)=C(O)C12CCC2` [Example 300], the IC50 came to 9.3 µM.

In the case of `C[C@@]12CCCN1N(Cc1ccc(OCCN3CCOCC3)c(F)c1F)C(=O)C(C(=O)Nc1ccc(Cl)cc1-c1cc(C(F)(F)F)ncn1)=C2O` [Example 107], the IC50 was 25.9 µM. In the case of `CCN1[C@@H](C(C)(C)C)C(O)=C(C(=O)Nc2ccc(Cl)cc2-c2ccc(C(F)(F)F)nc2)C(=O)N1Cc1cccc(F)c1F` [Example 245], the IC50 stood at 7.7 µM. Still for that read-out and setting: the figure for `C[C@]12CCCN1N(Cc1cccc(F)c1F)C(=O)C(C(=O)Nc1ccc(C(F)(F)F)cc1)=C2O` [Example 89] is 4.8 µM; for `Cc1c(Cl)ncnc1-c1cc(Cl)ccc1NC(=O)C1=C(O)[C@H](C(C)(C)C)N(C)N(Cc2ccc(OCCN3CCOCC3)c(F)c2F)C1=O` [Example 275] it is 16.8 µM.

The experiment is the same for the next values; noted with them: read-out: IC50 against 33PO4 uptake into human NaPi-IIb-expressing cells.
On to `CN1N(Cc2ccc(OCCCOC[C@H](O)CO)c(F)c2F)C(=O)C(C(=O)Nc2ccc(C(F)(F)F)cc2-c2ccc(C(F)(F)F)nc2)=C(O)C12CCC2` [Example 383, 6-[[4-[3-[(2R)-2,3-Dihydroxypropoxy]propoxy]-2,3-difluorophenyl]methyl]-9-hydroxy-5-methyl-7-oxo-N-[4-(trifluoromethyl)-2-[6-(trifluoromethyl)pyridin-3-yl]phenyl]5,6-diazaspiro[3.5]non-8-ene-8-carboxamide], for which the IC50 is 20.9 µM. Regarding `CN1N(Cc2ccc(OCCCOC[C@H](O)CO)c(F)c2F)C(=O)C(C(=O)Nc2ccc(C(F)(F)F)cc2-c2cc(C(F)(F)F)ncn2)=C(O)C12CCCC2` [Example 392], the IC50 stood at 15.8 µM. For `CN1N(Cc2ccc(OCCN3CCN(CCO)CC3)c(F)c2F)C(=O)C(C(=O)Nc2ccc(C(F)(F)F)cc2-c2cc(C(F)(F)F)ncn2)=C(O)C12CCCC2` [Example 376], the IC50 turned out to be 21.4 µM. Turning to `COCCN(C)CCOCCOc1ccc(CN2C(=O)C(C(=O)Nc3ccc(C(F)(F)F)cc3-c3cc(C(F)(F)F)ncn3)=C(O)C3(CCCC3)N2C)c(F)c1F` [Example 429, 7-[[2,3-Difluoro-4-[2-[2-[2-methoxyethyl(methyl)amino]ethoxy]ethoxy]phenyl]methyl]-10-hydroxy-6-methyl-8-oxo-N-[4-(trifluoromethyl)-2-[6-(trifluoromethyl)pyrimidin-4-yl]phenyl]-6,7-diazaspiro[4.5]dec-9-ene-9-carboxamide], the IC50 is 7.7 µM.

In the case of `CN1N(Cc2ccc(OCCN3CCC(N4CCOCC4)CC3)c(F)c2F)C(=O)C(C(=O)Nc2ccc(C(F)(F)F)cc2-c2cc(C(F)(F)F)ncn2)=C(O)C12CCC2` [Example 358], the IC50 is 9.2 µM.

Regarding `CN1N(Cc2ccc(OCCCOC[C@H](O)CO)c(F)c2F)C(=O)C(C(=O)Nc2ccc(C(F)(F)F)cc2-c2cc(C(F)(F)F)ncn2)=C(O)C12CCC2` [Example 389], the IC50 was 24.6 µM. In the case of `CN1N(Cc2ccc(OCCN3CCN(CCCO)CC3)c(F)c2F)C(=O)C(C(=O)Nc2ccc(C(F)(F)F)cc2-c2cc(C(F)(F)F)ncn2)=C(O)C12CCC2` [Example 362], the IC50 was determined as 18.8 µM.

In general, IC50 refers to the point on the concentration scale where inhibition reaches its midpoint.
